Assay: xn = mol fraction of the nth substance listed
Details: Liquid, Vibrating tube method

COC(=O)OC [dimethyl carbonate] + CO
mass density [kg/m3]
Details | 100 kPa | 5000 kPa | 10000 kPa | 15000 kPa | 20000 kPa | 25000 kPa | 30000 kPa | 35000 kPa | 40000 kPa
298.15 K, x1 = 0.0253 | – | – | – | – | – | 822.44 | 826.09 | 829.61 | 832.77
298.15 K, x1 = 0.0503 | – | – | – | – | – | 836.02 | 839.68 | 843.21 | 846.39
298.15 K, x1 = 0.0745 | – | – | – | – | – | 848.53 | 852.21 | 855.74 | 858.95
298.15 K, x1 = 0.101 | – | – | – | – | – | 861.5 | 865.23 | 868.78 | 872.01
298.15 K, x1 = 0.1502 | – | – | – | – | – | 883.85 | 887.6 | 891.17 | 894.43
298.15 K, x1 = 0.2059 | – | – | – | – | – | 906.93 | 910.69 | 914.23 | 917.53
298.15 K, x1 = 0.25 | – | – | – | – | – | 923.6 | 927.38 | 930.92 | 934.25
298.15 K, x1 = 0.3004 | – | – | – | – | – | 941.13 | 944.97 | 948.53 | 951.89
298.15 K, x1 = 0.3426 | – | – | – | – | – | 954.69 | 958.54 | 962.11 | 965.49
298.15 K, x1 = 0.3984 | – | – | – | – | – | 971.23 | 975.08 | 978.67 | 982.08
298.15 K, x1 = 0.4514 | – | – | – | – | – | 985.66 | 989.52 | 993.12 | 996.55
298.15 K, x1 = 0.5054 | – | – | – | – | – | 999.17 | 1003.04 | 1006.64 | 1010.1
298.15 K, x1 = 0.5509 | – | – | – | – | 1005.74 | 1009.72 | 1013.59 | 1017.21 | 1020.68
298.15 K, x1 = 0.6002 | – | – | – | – | 1016.28 | 1020.27 | 1024.16 | 1027.78 | 1031.27
298.15 K, x1 = 0.6469 | – | – | – | – | 1025.6 | 1029.6 | 1033.49 | 1037.12 | 1040.63
298.15 K, x1 = 0.6993 | – | – | – | – | 1035.37 | 1039.38 | 1043.27 | 1046.86 | 1050.38
298.15 K, x1 = 0.7496 | – | – | – | – | 1044.11 | 1048.12 | 1052.02 | 1055.62 | 1059.15
298.15 K, x1 = 0.799 | – | – | – | – | 1052.15 | 1056.12 | 1060.03 | 1063.63 | 1067.18
298.15 K, x1 = 0.837 | – | – | – | – | 1058.02 | 1061.99 | 1065.9 | 1069.51 | 1073.07
298.15 K, x1 = 0.9093 | – | – | – | – | 1068.61 | 1072.59 | 1076.46 | 1080.07 | 1083.65
298.15 K, x1 = 0.9239 | – | – | – | – | 1070.65 | 1074.63 | 1078.5 | 1082.11 | 1085.7
298.15 K, x1 = 0.9575 | – | – | – | – | 1075.22 | 1079.21 | 1083.09 | 1086.7 | 1090.29
298.15 K, x1 = 0.9861 | – | – | – | – | 1079.06 | 1083.05 | 1086.92 | 1090.54 | 1094.14
298.15 K, x1 = 1 | – | – | – | – | 1080.9 | 1084.89 | 1088.82 | 1092.44 | 1096.04
303.15 K, x1 = 0.0253 | 796.3 | 801.03 | 805.57 | 810.1 | 814.43 | 818.36 | 822.05 | – | –
303.15 K, x1 = 0.0503 | 809.73 | 814.5 | 819.05 | 823.59 | 827.93 | 831.86 | 835.56 | – | –
303.15 K, x1 = 0.0745 | 822.09 | 826.87 | 831.44 | 835.97 | 840.32 | 844.26 | 848.02 | – | –
303.15 K, x1 = 0.101 | 834.96 | 839.75 | 844.32 | 848.86 | 853.22 | 857.21 | 860.97 | – | –
303.15 K, x1 = 0.1502 | 857.02 | 861.81 | 866.4 | 870.99 | 875.37 | 879.38 | 883.14 | – | –
303.15 K, x1 = 0.2059 | 879.85 | 884.65 | 889.26 | 893.85 | 898.26 | 902.32 | 906.14 | – | –
303.15 K, x1 = 0.25 | 896.36 | 901.21 | 905.83 | 910.43 | 914.79 | 918.87 | 922.69 | – | –
303.15 K, x1 = 0.3004 | 913.71 | 918.57 | 923.21 | 927.81 | 932.19 | 936.27 | 940.09 | – | –
303.15 K, x1 = 0.3426 | 927.12 | 931.98 | 936.63 | 941.23 | 945.62 | 949.71 | 953.54 | – | –
303.15 K, x1 = 0.3984 | 943.53 | 948.4 | 953.06 | 957.62 | 962.02 | 966.12 | 969.95 | – | –
303.15 K, x1 = 0.4514 | 957.9 | 962.78 | 967.4 | 971.96 | 976.32 | 980.43 | 984.26 | – | –
303.15 K, x1 = 0.5054 | 971.35 | 976.23 | 980.81 | 985.37 | 989.75 | 993.91 | 997.75 | – | –
303.15 K, x1 = 0.5509 | 981.85 | 986.74 | 991.33 | 995.89 | 1000.23 | 1004.39 | 1008.28 | – | –
303.15 K, x1 = 0.6002 | 992.37 | 997.25 | 1001.85 | 1006.41 | 1010.76 | 1014.93 | 1018.82 | – | –
303.15 K, x1 = 0.6469 | 1001.6 | 1006.49 | 1011.1 | 1015.61 | 1019.97 | 1024.14 | 1028.04 | – | –
303.15 K, x1 = 0.6993 | 1011.29 | 1016.13 | 1020.75 | 1025.26 | 1029.62 | 1033.8 | 1037.7 | – | –
303.15 K, x1 = 0.7496 | 1019.99 | 1024.84 | 1029.41 | 1033.93 | 1038.25 | 1042.43 | 1046.33 | – | –
303.15 K, x1 = 0.799 | 1028.01 | 1032.86 | 1037.44 | 1041.96 | 1046.28 | 1050.47 | 1054.37 | – | –
303.15 K, x1 = 0.837 | 1033.85 | 1038.71 | 1043.24 | 1047.76 | 1052.09 | 1056.23 | – | – | –
303.15 K, x1 = 0.9093 | 1044.36 | 1049.21 | 1053.76 | 1058.22 | 1062.51 | 1066.71 | – | – | –
303.15 K, x1 = 0.9239 | 1046.39 | 1051.25 | 1055.79 | 1060.26 | 1064.55 | 1068.75 | – | – | –
303.15 K, x1 = 0.9575 | 1050.95 | 1055.81 | 1060.36 | 1064.83 | 1069.12 | 1073.32 | – | – | –
303.15 K, x1 = 0.9861 | 1054.77 | 1059.63 | 1064.18 | 1068.65 | 1072.95 | 1077.15 | – | – | –
303.15 K, x1 = 1 | 1056.61 | 1061.47 | 1066.02 | 1070.49 | 1074.79 | 1078.99 | – | – | –
